Laboratory results taken from ChEMBL document CHEMBL4152332, “Discovery and synthesis of novel magnolol derivatives with potent anticancer activity in non-small cell lung cancer” (Eur J Med Chem, 2018).

Assay: Antitumor activity against mouse C26 cells implanted in Balb/c mouse assessed as tumor growth inhibition at 100 mg/kg, po qd and measured every 2 days relative to control
Format: functional
Settings: 48 h, read-out: TGI

SMILES: C=CCc1ccc(O)c(-c2cc(CC=C)cc(CN3CCC(N)CC3)c2O)c1
- inhibition in vivo at 100 mg/kg: 47.9%
